From BigSolDB 2.1

O=C(O)CCCCCCCC(=O)O
Details	solubility (mole fraction)
in acetic acid, 289.05 K	0.022
in acetic acid, 293.95 K	0.0279
in acetic acid, 298.85 K	0.0355
in acetic acid, 303.45 K	0.0452
in acetic acid, 308.35 K	0.0582
in acetic acid, 313.35 K	0.0746
in acetic acid, 318.85 K	0.0964
in acetic acid, 325.35 K	0.132
in acetic acid, 330.95 K	0.169
in acetic acid, 337.35 K	0.223
in acetic acid, 341.75 K	0.265
in acetone, 276.65 K	0.00895
in acetone, 279.45 K	0.0103
in acetone, 283.15 K	0.0129
in acetone, 286.95 K	0.0158
in acetone, 294.15 K	0.0228
in acetone, 297.55 K	0.0275
in acetone, 303.05 K	0.0365
in acetone, 306.55 K	0.0438
in acetone, 312.05 K	0.0587
in acetone, 316.15 K	0.0732
in acetone, 320.95 K	0.1
in acetone, 325.35 K	0.12
in ethanol, 276.75 K	0.0212
in ethanol, 280.05 K	0.0253
in ethanol, 283.25 K	0.0292
in ethanol, 288.15 K	0.0362
in ethanol, 293.05 K	0.0449
in ethanol, 297.55 K	0.0546
in ethanol, 304.05 K	0.069
in ethanol, 307.35 K	0.083
in ethanol, 312.05 K	0.0969
in ethanol, 317.05 K	0.117
in ethanol, 322.05 K	0.143
in ethanol, 326.85 K	0.166
in ethanol, 332.05 K	0.202
in ethanol, 336.55 K	0.234
in ethylene glycol, 278.65 K	0.0083
in ethylene glycol, 283.35 K	0.01
in ethylene glycol, 288.05 K	0.0105
in ethylene glycol, 292.85 K	0.0144
in ethylene glycol, 297.35 K	0.0241
in ethylene glycol, 303.35 K	0.03
in ethylene glycol, 307.35 K	0.0395
in ethylene glycol, 312.25 K	0.0496
in ethylene glycol, 317.05 K	0.0622
in ethylene glycol, 321.55 K	0.0791
in ethylene glycol, 326.45 K	0.103
in ethylene glycol, 331.35 K	0.131
in ethylene glycol, 336.15 K	0.167
